From the OPERA property sets (Mansouri et al. 2018)

Conditions: not given
C[C@]12CCC(=O)C=C1C=C[C@@H]1[C@@H]2CC[C@@]2(C)[C@H]1CC[C@@]21CCC(=O)O1 showed a melting point of 150 °C.
Work on Cc1ccc2cccc(C)c2c1 yielded a boiling point of 263 °C and a melting point of -13.9 °C.
In the case of CC(C)CCOC(=O)OCCC(C)C, the boiling point is reported as 234 °C.
With CCC(C)O[N+](=O)[O-] (configuration not stated) the boiling point was 124 °C.
For CC(=O)OC1CCCCC1C (configuration not stated), the ready biodegradability was “readily biodegradable”.
For Cc1ccccc1-c1ccccc1, the boiling point was 256 °C and the melting point was -0.2 °C.
For CCC1(C)OCCO1, the boiling point was 116 °C.
With CCN(N)c1ccccc1 the boiling point was 237 °C.
Work on C[C@H]1[C@H]2CC[C@H]3[C@@H]4CC=C5C[C@@H](N(C)C)CC[C@]5(C)[C@H]4CC[C@]23CN1C yielded a melting point of 126 °C.
CC(C)COC(=O)C(C)Oc1ccc(Oc2ccc(Cl)cc2)cc1 (configuration not stated) showed a melting point of 39.5 °C.
In the case of OCc1cccs1, the boiling point is reported as 207 °C.
COCC(=O)N(c1c(C)cccc1C)N1CCOC1=O gave a log10 vapour pressure (mmHg) of -7.61 and a melting point of 104 °C.
With CCCCCCCCCCCCCCCCCC#N the boiling point was 362 °C and the melting point was 41 °C.
CCOP(=O)(OCC)OP(=O)(OCC)OCC gave a log10 vapour pressure (mmHg) of -3.58.
C1=CCC1 gave a boiling point of 2 °C.
Molecule COc1ccc(C=O)c(C(=O)O)c1OC has a melting point of 150 °C.
Molecule Cc1ccc(CO)cc1 has a boiling point of 217 °C and a melting point of 61.5 °C.
Work on O=S(=O)(Cl)c1ccc(Cl)cc1 yielded a melting point of 51 °C.
With CCCCCBr the boiling point was 130 °C, the log10 vapour pressure (mmHg) was 1.1 and the melting point was -95 °C. The ready biodegradability was “not readily biodegradable”.
Molecule CSCC(C)C has a boiling point of 112 °C.
CCC(O)c1ccccc1 (configuration not stated) gave a boiling point of 219 °C.
Molecule CCCCCCC(O)CCCC (configuration not stated) has a boiling point of 229 °C and a melting point of -3.5 °C.
With Cc1cccc(C)c1NC(=O)CN(CC(=O)O)CC(=O)O the melting point was 202 °C.
With C=C[C@](C)(O)CC[C@@H]1[C@@]2(C)CCCC(C)(C)[C@@H]2CC[C@@]1(C)O the melting point was 97 °C.
CN(C)c1ccc(-c2ccc(N(C)C)cc2)cc1 gave a melting point of 194 °C.
With Cc1cccc(C)c1N(C(=O)CCl)C1CCOC1=O (configuration not stated) the log10 vapour pressure (mmHg) was -6.82 and the melting point was 146 °C.
For C[Si]1(c2ccccc2)O[Si](C)(c2ccccc2)O[Si](C)(c2ccccc2)O1 (configuration not stated), the melting point was 100 °C.
In the case of Cc1cc(C)c([N+](=O)[O-])cc1C, the boiling point is reported as 265 °C and the melting point is reported as 71 °C.
Molecule NC1=C(Cl)C(=O)c2ccccc2C1=O has a log10 vapour pressure (mmHg) of -6.35 and a melting point of 199 °C.
With CCOC(=O)NCCOc1ccc(Oc2ccccc2)cc1 the log10 Koc (L/kg) was 3, the log10 vapour pressure (mmHg) was -8.2 and the melting point was 53.2 °C.
With O=C1C(=O)c2cccc3cccc1c23 the melting point was 261 °C.
In the case of COc1ccccc1OP(=O)(Oc1ccccc1OC)Oc1ccccc1OC, the melting point is reported as 91 °C.
Molecule O=[N+]([O-])c1ccc2ccccc2c1 has a boiling point of 314 °C and a melting point of 79 °C.
For O=C(O)c1c(Cl)c(Cl)c(Cl)c(Cl)c1C(O)=Nc1cccc(Cl)c1Cl, the melting point was 198 °C.
Work on CCOC(=O)C(=O)C(=O)OCC yielded a boiling point of 210 °C and a melting point of -30 °C.
Work on CC(Cl)C(Cl)CCl (configuration not stated) yielded a boiling point of 168 °C.
In the case of Oc1ccc(I)cc1, the melting point is reported as 93.5 °C and the ready biodegradability is reported as “not readily biodegradable”.
CCCC(=O)O[C@H]1[C@H](C)O[C@@H](O[C@H]2[C@H](N(C)C)[C@@H](O)[C@H](O[C@H]3[C@@H](CC=O)C[C@@H](C)[C@@H](O)C=CC=CC[C@@H](C)OC(=O)C[C@@H](O)[C@@H]3OC)O[C@@H]2C)C[C@@]1(C)OC(=O)CC gave a melting point of 116 °C.
In the case of CC(C)=NO, the boiling point is reported as 136 °C and the melting point is reported as 61 °C.
With NC(=O)c1c(F)c(F)c(F)c(F)c1F the melting point was 147 °C.
Molecule C(=Nc1ccccc1)c1ccccc1 has a boiling point of 310 °C and a melting point of 54 °C.
With CCCCCCCCCCCCCCCCBr the boiling point was 336 °C, the log10 vapour pressure (mmHg) was -4.31 and the melting point was 18 °C. For the same molecule, the ready biodegradability was “readily biodegradable”.
With CCCCCCCCCCCCN1CC(C(=O)O)CC1=O (configuration not stated) the melting point was 39 °C.
With CC(C)Nc1ccccc1 the boiling point was 203 °C and the melting point was -10 °C.
Molecule CCN(CC)CCCN(c1ccccc1)C1Cc2ccccc2C1 has a melting point of 120 °C.
CC1CC(OC(=O)C(O)c2ccccc2)CC(C)(C)N1C (configuration not stated) showed a melting point of 113 °C.
For O=C(O)c1nn(Cc2ccc(Cl)cc2Cl)c2ccccc12, the melting point was 207 °C.
For O=c1[nH]c2ccccc2n1CCCN1CCC(n2c(=O)[nH]c3cc(Cl)ccc32)CC1, the melting point was 242 °C.
With CCCC(C)C=O (configuration not stated) the boiling point was 117 °C.
Work on O=C(O)[C@H]1CC[C@H](C(=O)O)CC1 yielded a melting point of 312 °C.
With Cc1cc(C)c(O)c(C)c1C the boiling point was 240 °C and the melting point was 80.5 °C.
For CC(C)SSC(C)C, the boiling point was 177 °C and the melting point was -69 °C.
With Oc1cc(O)c2c(c1)O[C@H](c1ccc(O)c(O)c1)[C@@H](O)C2 the log10 Koc (L/kg) was 2.03.
For CC#CC(=O)OCC, the boiling point was 163 °C.
Work on O=C(O)c1c(Cl)ccc2cc(Cl)cnc12 yielded a melting point of 274 °C.
With CC(=O)NC(CC(=O)[O-])C(=O)[O-] (configuration not stated) the melting point was 138 °C.
C[C@H]1C[C@@H](OC(=O)c2ccccc2)CC(C)(C)N1 gave a melting point of 70.5 °C.
With CC1(N)CCC(C(C)(C)N)CC1 (configuration not stated) the melting point was -45 °C.
With CCCCCCCCCCCCF the log10 vapour pressure (mmHg) was -0.682.
In the case of CCCCCCCCCCCCCl, the boiling point is reported as 260 °C, the log10 vapour pressure (mmHg) is reported as -2.2 and the melting point is reported as -9.3 °C. The ready biodegradability was “readily biodegradable”.
Work on CCCCO[N+](=O)[O-] yielded a boiling point of 133 °C, a log10 Henry constant (atm·m³/mol) of -2.81 and a log10 vapour pressure (mmHg) of 0.919.
CCCCC(C(N)=O)n1nc2ccccc2n1 (configuration not stated) gave a melting point of 102 °C.
Work on CCCCN(CCCC)CCCC yielded a boiling point of 216 °C, a log10 vapour pressure (mmHg) of -1.03 and a melting point of -70 °C. The ready biodegradability was “not readily biodegradable”.
For COc1c(Cl)c(Cl)c(Cl)c(Cl)c1Cl, the melting point was 108 °C.
O=C=Nc1ccc(-c2ccccc2)cc1 gave a boiling point of 283 °C and a melting point of 56 °C.
With COc1ccc(C(=O)O)c(OC)c1OC the melting point was 100 °C.
Work on FC(F)(F)Br yielded a boiling point of -57.8 °C, a log10 Henry constant (atm·m³/mol) of -0.302 and a log10 vapour pressure (mmHg) of 4.09. The melting point was -172 °C.
COP(=O)(OC)C(O)C(Cl)(Cl)Cl (configuration not stated) showed a log10 Koc (L/kg) of 1.9, a log10 vapour pressure (mmHg) of -5.11 and a melting point of 77 °C. For the same molecule, the ready biodegradability was “not readily biodegradable”.
Clc1ccc(-c2c(Cl)cc(Cl)c(Cl)c2Cl)c(Cl)c1 showed a melting point of 73 °C.
Work on CCOCCBr yielded a boiling point of 128 °C.
For C=CCOC(=O)c1ccccc1C(=O)OCC=C, the ready biodegradability was “readily biodegradable”.
With Cc1ccncc1C the boiling point was 179 °C, the log10 Henry constant (atm·m³/mol) was -5.43 and the log10 vapour pressure (mmHg) was 0.092. For the same molecule, the melting point was -11 °C.
For CC(C)[N+](C)(CCOC(=O)C1c2ccccc2Oc2ccccc21)C(C)C.[Br-], the melting point was 160 °C.
In the case of CCCCCCCCCCCCCCCCCC(=O)CCCCCCCCCCCCCCCCC, the melting point is reported as 89 °C.
In the case of Clc1ccc(-c2cc(Cl)c(Cl)c(Cl)c2)cc1Cl, the log10 Koa is reported as 10.3.
For CC(N)=S, the log10 Koc (L/kg) was 0.78, the melting point was 116 °C and the ready biodegradability was “not readily biodegradable”.
In the case of Cc1cccc(C(=O)O)c1O, the melting point is reported as 166 °C and the ready biodegradability is reported as “not readily biodegradable”.
CNC(=O)Oc1ccc2c(c1)[C@]1(C)CCN(C)[C@@H]1N2C showed a melting point of 106 °C.
CCN(CC)c1cccc(C)c1 gave a boiling point of 232 °C.
With Oc1ccc(-c2ccc(O)cc2)cc1 the melting point was 283 °C and the ready biodegradability was “not readily biodegradable”.
With c1cc2c(cc1O[C@H]1OC[C@H]3[C@@H]1CO[C@@H]3c1ccc3c(c1)OCO3)OCO2 the melting point was 93.5 °C.
With Cc1ccc2cc3ccccc3cc2c1 the log10 vapour pressure (mmHg) was -5.27 and the melting point was 209 °C.
In the case of CC(=O)c1ccc(C)c(C)c1, the boiling point is reported as 246 °C and the melting point is reported as -3 °C.
With O=[N+]([O-])c1cccs1 the boiling point was 224 °C and the melting point was 46.5 °C.
Work on CC(C)CCBr yielded a boiling point of 120 °C, a log10 Henry constant (atm·m³/mol) of -1.46 and a log10 vapour pressure (mmHg) of 1.54. For the same molecule, the melting point was -112 °C.
With C[C@@H]1C[C@H]2CC[C@H](O2)[C@H](C)C(=O)O[C@@H](C)C[C@@H]2CC[C@@H](O2)[C@@H](C)C(=O)O[C@H](C)C[C@H]2CC[C@H](O2)[C@H](C)C(=O)O[C@@H](C)C[C@@H]2CC[C@@H](O2)[C@@H](C)C(=O)O1 the melting point was 148 °C.
Work on CN(C)CCCN1c2ccccc2S(=O)c2ccc(Cl)cc21 (configuration not stated) yielded a melting point of 115 °C.
For CC(C)(C#N)C(C)(C)C#N, the melting point was 170 °C.
Molecule NNC(=O)c1ccc(Br)cc1 has a melting point of 166 °C.
In the case of C=CCc1ccccc1O, the boiling point is reported as 220 °C, the melting point is reported as -6 °C and the ready biodegradability is reported as “readily biodegradable”.
Molecule Cc1ccc2ncccc2c1 has a boiling point of 259 °C, a log10 vapour pressure (mmHg) of -2.19 and a melting point of -22 °C.
Molecule O=C=Nc1ccc(Br)cc1 has a boiling point of 226 °C.
With CC(C)c1ccc(N)cc1 the boiling point was 225 °C, the log10 vapour pressure (mmHg) was -1.08 and the ready biodegradability was “not readily biodegradable”.
Molecule c1ccc2c(c1)oc1ccccc12 has a boiling point of 287 °C, a log10 Koc (L/kg) of 3.91 and a log10 vapour pressure (mmHg) of -2.61. For the same molecule, the melting point was 86.5 °C and the ready biodegradability was “readily biodegradable”.
With COC(=O)C=CC(=O)OC the ready biodegradability was “readily biodegradable”.

Same assay, conditions: fish
Clc1ccccc1-c1c(Cl)ccc(Cl)c1Cl showed a log10 biotransformation half-life (days) of 2.38.
Molecule CCCCN(CCCC)CCCC has a log10 BCF of 1.4.
COc1c(Cl)c(Cl)c(Cl)c(Cl)c1Cl gave a log10 BCF of 4.16 and a log10 biotransformation half-life (days) of 2.67.
Clc1ccc(-c2cc(Cl)c(Cl)c(Cl)c2)cc1Cl showed a log10 biotransformation half-life (days) of 2.4.
Cc1ccc2cc3ccccc3cc2c1 gave a log10 biotransformation half-life (days) of -0.02.
In the case of Brc1cc(Br)c(Br)c(Oc2c(Br)c(Br)c(Br)c(Br)c2Br)c1, the log10 BCF is reported as 5.68.
Molecule c1ccc2c(c1)oc1ccccc12 has a log10 BCF of 3.18 and a log10 biotransformation half-life (days) of 1.35.
